Experiment [1] concerns IFN-γ. Put plainly: IFN-γ Levels in Chronic Opisthorchiasis Patients (ProCon IFN-γ assay, 492 nm). To be noted: Second Group: praziquantel only, two weeks after treatment. Type of experiment: in vivo, human. From the text: Forty-five (45) individuals with chronic opisthorchiasis were split into two groups: a first group including twenty-five (25) individuals and a second group including twenty (20) individuals. The individuals of both groups received conventional praziquantel treatment, an anti-parasitic, or antihelminthic, drug which is used in the treatment of opisthorchiasis and is available under the trade name BILTHRICIDE™ from Bayer AG of Leverkusen, Germany. In addition to praziquantel, two capsules of TRANSFER FACTOR PLUS were administered to the individuals of the first group following praziquantel treatment, three times daily for seven days. The individuals of the second group were only treated with praziquantel.
Levels of various cytokines, including γ-interferon (IFN-γ), antibodies, and immune complexes were determined, by known processes, for each the individuals prior to therapy and two weeks following TRANSFER FACTOR PLUS therapy in the individuals of the […] was discontinued. The following TABLE 4 lists the collective measures of IFN-γ in both groups, as determined by use of the ProCon IFN-γ assay available from Protein Contour of St. Petersburg, Russia, and photometrically measured at a wavelength of 492 nm. TABLE 4 also includes a collective measure of the IFN-γ levels of fifteen (15) “normal” blood donors.

In experiment [2] the test system is IFN-γ. Put plainly: IFN-γ Levels in Chlamydia Patients (ProCon IFN-γ assay, 492 nm). It counts as in vivo, human. To be noted: urogenital chlamydiosis patients, First Group: claritomycin, doxycyclin and ofloxacin in succession; after treatment. As to the method:
Among other cytokine levels, levels of IFN-γ were determined for three groups, each including fifteen (15) individuals, and compared with IFN-γ levels of the aforementioned group of fifteen (15) “normal” blood donors. The individuals of a first group were treated with 500 mg of claritomycin twice daily for ten (10) to fourteen (14) days, 100 mg of doxycyclin once daily for ten (10) days, and 200 mg of ofloxacin twice daily for ten (10) days, with the drugs having been administered in succession. The individuals of the second group received 500 mg of claritomycin twice daily for ten (10) to fourteen (14) days and one capsule of TRANSFER FACTOR PLUS three times each day for ten (10) days, with treatment with the claritomycin and TRANSFER FACTOR PLUS beginning on the same day. In the third group, each individual was treated with 500 mg of claritomycin twice daily for ten (10) to fourteen (14) days and one capsule of TRANSFER FACTOR thrice daily for ten (10) days, with administration of the claritomycin and TRANSFER FACTOR PLUS having begun on the same day. […] The following TABLE 5 lists the collective measures of IFN-γ in all three groups, as determined by use of the ProCon IFN-γ assay available from Protein Contour and photometrically measured at a wavelength of 492 nm. […]

In the case of `O=C(C1CCCCC1)N1CC(=O)N2CCc3ccccc3C2C1` (centres unmarked) [praziquantel], the IFN-γ level in the experiment with IFN-γ [1] was 51.4 ± 6.3.
Regarding `CC[C@H]1OC(=O)[C@H](C)[C@@H](O[C@H]2C[C@@](C)(OC)[C@@H](O)[C@H](C)O2)[C@H](C)[C@@H](O[C@@H]2O[C@H](C)C[C@H](N(C)C)[C@H]2O)[C@](C)(OC)C[C@@H](C)C(=O)[C@H](C)[C@@H](O)[C@]1(C)O` [claritomycin], the IFN-γ level with IFN-γ [2] is given as 31.4 ± 6.1.
